System: 485176-168-R4-J1-PDC complex spheroid growth
Experiment: Anticancer human tumor 485176-168-R4-J1-PDC patient-derived pancreatic adenocarcinoma cell line growth inhibition [RAS]
Conditions: for IC50: curve of first compound; for viability, T/C: stronger effect = lower value
Procedure, shortened: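 Agents were tested in combination matrices in half-log decrements from a top concentration at or near clinical Cmax (10 microM if undetermined). Targets were multi-cell spheroids of tumour lines plus HUVEC and MSC stromal cells.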

[1] = second compound 0.0316 µM, first compound 0.0316 µM
[2] = second compound 0.0316 µM, first compound 0.1 µM
[3] = second compound 0.0316 µM, first compound 0.316 µM
[4] = second compound 0.0316 µM, first compound 1 µM
[5] = second compound 0.1 µM, first compound 0.0316 µM
[6] = second compound 0.1 µM, first compound 0.1 µM
[7] = second compound 0.1 µM, first compound 0.316 µM
[8] = second compound 0.1 µM, first compound 1 µM
[9] = second compound 0.316 µM, first compound 0.0316 µM
[10] = second compound 0.316 µM, first compound 0.1 µM
[11] = second compound 0.316 µM, first compound 0.316 µM
[12] = second compound 0.316 µM, first compound 1 µM
[13] = second compound 1 µM, first compound 0.0316 µM
[14] = second compound 1 µM, first compound 0.1 µM
[15] = second compound 1 µM, first compound 0.316 µM
[16] = second compound 1 µM, first compound 1 µM
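Also: spheroids exposed to compounds for seven days before readout.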
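For viability, T/C in this document: luminescence viability expressed relative to DMSO vehicle wells set as 100%.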

`Nc1ccn(C2OC(CO)C(O)C2(F)F)c(=O)n1` (centres undefined) + C#Cc1c(F)ccc2cc(O)cc(-c3ncc4c(N5CC6CCC(C5)N6)nc(OCC56CCCN5CC(F)C6)nc4c3F)c12 gave an IC50 (second compound 0.0316 µM) of 17.3 nM, an IC50 (second compound 0.1 µM) of 16.4 nM and an IC50 (second compound 0.316 µM) of 14.2 nM. The IC50 (second compound 1 µM) was 18.2 nM, the IC50 (second compound 3.16 µM) was 15.3 nM and the IC50 (second compound 10 µM) was 15.3 nM. For the same molecule, the viability, T/C (second compound 0.0316 µM, first compound 0.00316 µM) was 84%, the viability, T/C (second compound 0.0316 µM, first compound 0.01 µM) was 80.9% and the viability, T/C [1] was 15.7%. For the same molecule, the viability, T/C [2] was 8.52%, the viability, T/C [3] was 8.6% and the viability, T/C [4] was 8.88%. For the same molecule, the viability, T/C (second compound 0.1 µM, first compound 0.00316 µM) was 87.7%, the viability, T/C (second compound 0.1 µM, first compound 0.01 µM) was 76.1% and the viability, T/C [5] was 15.6%. The viability, T/C [6] was 8.78%, the viability, T/C [7] was 9.24% and the viability, T/C [8] was 9.6%. For the same molecule, the viability, T/C (second compound 0.316 µM, first compound 0.00316 µM) was 80.7%, the viability, T/C (second compound 0.316 µM, first compound 0.01 µM) was 66.1% and the viability, T/C [9] was 13.2%. For the same molecule, the viability, T/C [10] was 7.37%, the viability, T/C [11] was 11.3% and the viability, T/C [12] was 10.4%. The viability, T/C (second compound 1 µM, first compound 0.00316 µM) was 94.8%, the viability, T/C (second compound 1 µM, first compound 0.01 µM) was 84.9% and the viability, T/C [13] was 17.8%. For the same molecule, the viability, T/C [14] was 7.27%, the viability, T/C [15] was 10.2% and the viability, T/C [16] was 9.53%. For the same molecule, the viability, T/C (second compound 3.16 µM, first compound 0.00316 µM) was 82.5%, the viability, T/C (second compound 3.16 µM, first compound 0.01 µM) was 69.7% and the viability, T/C (second compound 3.16 µM, first compound 0.0316 µM) was 16.5%. It also gave a viability, T/C (second compound 3.16 µM, first compound 0.1 µM) of 10.8%, a viability, T/C (second compound 3.16 µM, first compound 0.316 µM) of 10.5% and a viability, T/C (second compound 3.16 µM, first compound 1 µM) of 10.3%. It also gave a viability, T/C (second compound 10 µM, first compound 0.00316 µM) of 92.4%, a viability, T/C (second compound 10 µM, first compound 0.01 µM) of 71.2% and a viability, T/C (second compound 10 µM, first compound 0.0316 µM) of 14.2%. The viability, T/C (second compound 10 µM, first compound 0.1 µM) was 11.5%, the viability, T/C (second compound 10 µM, first compound 0.316 µM) was 10.9% and the viability, T/C (second compound 10 µM, first compound 1 µM) was 9.84%.
In the case of `CC1(O)CCCC1n1c(=O)c(C(F)F)cc2cnc(NC3CCN(S(C)(=O)=O)CC3)nc21` (centres undefined) + C=CC(=O)N1CCN(c2nc(OCC3CCCN3C)nc3c(F)c(-c4nc(N)cc(C)c4C(F)(F)F)c(Cl)cc23)C(C)C1, the IC50 (second compound 0.00316 µM) is reported as 1970 nM, the IC50 (second compound 0.01 µM) is reported as 2340 nM and the IC50 (second compound 0.0316 µM) is reported as 2090 nM. The IC50 (second compound 0.1 µM) was 2220 nM, the IC50 (second compound 0.316 µM) was 3650 nM and the IC50 (second compound 1 µM) was 1810 nM. The viability, T/C (second compound 0.00316 µM, first compound 0.0316 µM) was 97%, the viability, T/C (second compound 0.00316 µM, first compound 0.1 µM) was 77.5% and the viability, T/C (second compound 0.00316 µM, first compound 0.316 µM) was 59%. The viability, T/C (second compound 0.00316 µM, first compound 1 µM) was 60.3%, the viability, T/C (second compound 0.00316 µM, first compound 3.16 µM) was 55.9% and the viability, T/C (second compound 0.00316 µM, first compound 10 µM) was 4.16%. It also gave a viability, T/C (second compound 0.01 µM, first compound 0.0316 µM) of 80.2%, a viability, T/C (second compound 0.01 µM, first compound 0.1 µM) of 61.8% and a viability, T/C (second compound 0.01 µM, first compound 0.316 µM) of 66.7%. It also gave a viability, T/C (second compound 0.01 µM, first compound 1 µM) of 67.7%, a viability, T/C (second compound 0.01 µM, first compound 3.16 µM) of 43.9% and a viability, T/C (second compound 0.01 µM, first compound 10 µM) of 2.59%. For the same molecule, the viability, T/C [1] was 91.2%, the viability, T/C [2] was 81.6% and the viability, T/C [3] was 70.2%. It also gave a viability, T/C [4] of 58%, a viability, T/C (second compound 0.0316 µM, first compound 3.16 µM) of 51.5% and a viability, T/C (second compound 0.0316 µM, first compound 10 µM) of 2.26%. The viability, T/C [5] was 91.8%, the viability, T/C [6] was 74.5% and the viability, T/C [7] was 68.9%. For the same molecule, the viability, T/C [8] was 68.7%, the viability, T/C (second compound 0.1 µM, first compound 3.16 µM) was 45% and the viability, T/C (second compound 0.1 µM, first compound 10 µM) was 3.32%. The viability, T/C [9] was 103%, the viability, T/C [10] was 62.5% and the viability, T/C [11] was 73.4%. The viability, T/C [12] was 68.1%, the viability, T/C (second compound 0.316 µM, first compound 3.16 µM) was 62% and the viability, T/C (second compound 0.316 µM, first compound 10 µM) was 3.67%. It also gave a viability, T/C [13] of 104%, a viability, T/C [14] of 86.8% and a viability, T/C [15] of 69.4%. It also gave a viability, T/C [16] of 49.1%, a viability, T/C (second compound 1 µM, first compound 3.16 µM) of 62.6% and a viability, T/C (second compound 1 µM, first compound 10 µM) of 2.11%.

Reference: PubChem BioAssay AID2060906 (Molecular Pharmacology Branch, DTP, NCI, 2025)
